Measured values as given in patent US10968214B2, “KRas G12C inhibitors” (Eli Lilly and Company, priority 2018, dated 2021).
Like-named read-outs stand apart in the source and are kept apart here.

Key:
[1] = system: SW756; assay: CellTiterGlo Cell Proliferation Assay, SW756; assay type: cell-based; conditions: Homo sapiens, KRas G12C, Cervix, 96 hr
Method: (§1) A panel of tumor cell lines harboring KRas G12C or other KRas mutations are collected (Table 6). All cell lines are from ATCC or other sources indicated.
(§2) Typically cells are cultured in RPMI1640 or Dulbecco's modified Eagle's medium (DMEM, GIBCO) supplemented with 10% FBS (GIBCO, Invitrogen). For 2D culture cells (4×10^3/well) maintained in growth medium described above, are plated onto 96 well tissue culture plates Corning® Cat. 3603) a day before the treatment. For 3D culture 8000 cells/well are seeded onto 96 well ultra-low attachment tissue culture plates (Corning, #3474). The cells are treated compound for 96 hr, and then are analyzed for viability using the CellTiterGlo® Luminescent Cell Viability Assay® (Promega #G7572 for 2D and Promega #G9683 for 3D cultures) according to manufacturer's instructions and an EnVision™ plate reader. Nonlinear regression and sigmoidal dose-response curves are used to calculate the half maximal inhibitory concentration (IC50) with GraphPad Prism 4® software.

[2] = system: phosphorylation of p-ERK1/2 in H358 cells; assay: H358 Cellular Phospho-ERK AlphaLISA; assay type: cell-based, Human; conditions: Homo sapiens, NCI-H358, 2 h
Method: This assay is used to measure the ability of test compounds to inhibit the phosphorylation of p-ERK1/2, a downstream effector of KRas in Human lung cancer cells H358 (ATCC CRL-5807). Briefly, the AlphaLISA® SureFire® Ultra™ p-ERK 1/2 (Thr202/Tyr204) assay is a sandwich immunoassay for quantitative detection of phospho-ERK 1/2 (phosphorylated on Thr202/Tyr204 in ERK1, or Thr185/Tyr187 in ERK2) in cellular lysates using Alpha Technology (Perkin Elmer Cat #ALSU-PERK-A50K).
H358 cells are plated at 40K cells per well in 100 μL media (RPMI 1640, GIBCO Cat #22400-071) containing 10% FBS (GIBCO Cat #: 10082-147) in a 96 well plate (Costar #3596) and are incubated overnight in humid trays at 37° C., 5% CO2. The next morning, 10 μL of serially-diluted (3-fold) test compounds (50 μM top concentration) and 10 uL of controls (Maximum signal wells: 5% DMSO and Minimum signal wells: 2 μM of N-(3-{3-cyclopropyl-5-[(2-fluoro-4-iodophenyl)amino]-6,8-dimethyl-2,4,7-trioxo-3,4,6,7-tetrahydropyrido[4,3-D]pyrimidin-1(2H)-yl}phenyl)acetamide (trametinib, as a positive control) are added to the cell plate and incubated for 2 hr in humid trays at 37° C./5% CO2. Lysis Buffer is prepared at RT containing a protease and phosphatase inhibitor cocktail. Culture medium is removed by inverting and shaking the cell plate in the sink and then blotting onto a paper towel. Lysis buffer is added to the cell plate (50 μL per well) and the plate is incubated at RT for 10 min on a shaker. For p-ERK detection, acceptor beads are diluted into a suspension mixture with buffer. Using a Starlett liquid handler, 5 μL of acceptor beads and 2 μL of cell lysate are transferred as a single-step in-tip dilution to a 384 well assay plate. The assay plate is sealed with foil and is incubated at RT for 2 hrs. Donor beads are diluted into a suspension mixture with buffer. Using the Starlet, 5 μL of donor beads are added to the assay plate that is then sealed, wrapped with foil. The plate is incubated at RT for 2 hrs in the dark. The assay plate is then read on an EnVision™ Plate Reader (Perkin Elmer) using a luminescence program.
The signal is converted to percent inhibition using the following equation: % Inhibition=100−[(Test Compound Signal−Median Minimum Signal)/(Median Maximum Signal−Median Min Signal)×100]. The Maximum signal is a control well without inhibitor.

[3] = system: H441; assay: CellTiterGlo Cell Proliferation Assay, H441; assay type: cell-based; conditions: Homo sapiens, NCI-H441, KRas G12V, lung, 96 hr
Method: as §1, §2

[4] = system: D122-96; assay: CellTiterGlo Cell Proliferation Assay, D122-96; assay type: cell-based; conditions: KRas G12C, Lung (mouse), 96 hr
Method: as §1, §2

[5] = read-out: IC50 (μM) in 2 D cell proliferation
[6] = read-out: IC50 (μM) in 3 D spheroid cell proliferation

Q: For `C=CC(=O)N1CCN(c2ncnc3c(F)c(-c4ccc(F)c5sc(N)nc45)c(Cl)cc23)CC1` [Example 1, 1-{4-[7-(2-Amino-7-fluoro-1,3-benzothiazol-4-yl)-6-chloro-8-fluoroquinazolin-4-yl]piperazin-1-yl}prop-2-en-1-one], which IC50 [1, 5] is on record?
A: 1.15 µM

Q: What about the IC50 [1, 6] of the same molecule?
A: 7.83 µM

Q: And the IC50 ([2]; read-out: pERK)?
A: 5.66 nM

Q: What about the IC50 ([2]; read-out: relative IC50) of the same molecule?
A: 5.7 nM

Q: What about the IC50 [3, 5] of the same molecule?
A: 16.5 µM

Q: What about the IC50 [3, 6] of the same molecule?
A: 7.89 µM

Q: What about the IC50 [4, 5] of the same molecule?
A: 0.126 µM

Q: And the IC50 [4, 6]?
A: 0.069 µM
